From patent publication US20260022142A1, “MACROCYCLIC IMMUNOMODULATORS” (Bristol-Myers Squibb Company, priority 2022, published 2026) come the findings set out here.

Bridge positions count the residues as written; N and C are the ends. Square brackets hold non-standard residues; d marks the D form. Peptide text beside a SMILES is read from it. * marks the point of attachment. ξ: configuration not given here. Phe(3-CF3) = N[C@@H](Cc1cccc(C(F)(F)F)c1)C(=O)O; Phe(4-COOH) = N[C@@H](Cc1ccc(C(=O)O)cc1)C(=O)O; Bip = N[C@@H](Cc1ccc(-c2ccccc2)cc1)C(=O)O; Phe(3-OMe) = COc1cccc(C[C@H](N)C(=O)O)c1; NH(CH2)14COOH = O=C(O)CCCCCCCCCCCCCCN*; Phe(3-Me) = Cc1cccc(C[C@H](N)C(=O)O)c1; Abu(3S-NH2) = C[C@H](N)[C@H](N)C(=O)O; NH(CH2)12COOH = O=C(O)CCCCCCCCCCCCN*; Val(3-OH) = CC(C)(O)[C@H](N)C(=O)O; hArg = N=C(N)NCCCC[C@H](N)C(=O)O; 4Pal = N[C@@H](Cc1ccncc1)C(=O)O; Cha = N[C@@H](CC1CCCCC1)C(=O)O; Cit = NC(=O)NCCC[C@H](N)C(=O)O; Thr(3ξ) = CC(O)[C@H](N)C(=O)O; 12Ado = NCCCCCCCCCCCC(=O)O; hSer = N[C@@H](CCO)C(=O)O; Carboxymethyl = O=C(O)C*; Orn = NCCC[C@H](N)C(=O)O; Aun = NCCCCCCCCCCC(=O)O; Dab = NCC[C@H](N)C(=O)O; Dap = NC[C@H](N)C(=O)O; AEEA = NCCOCCOCC(=O)O

For the assay, the target named is T1, PD-1/PD-L1 interaction (PE-labeled human PD-L1-Ig binding to Jurkat cell line over-expressing human PD-1) (Homo sapiens, UniProt Q15116).
T1 construct: expressed in transfected cells; host or cells: Jurkat
T1 sequence (Q15116 25-288): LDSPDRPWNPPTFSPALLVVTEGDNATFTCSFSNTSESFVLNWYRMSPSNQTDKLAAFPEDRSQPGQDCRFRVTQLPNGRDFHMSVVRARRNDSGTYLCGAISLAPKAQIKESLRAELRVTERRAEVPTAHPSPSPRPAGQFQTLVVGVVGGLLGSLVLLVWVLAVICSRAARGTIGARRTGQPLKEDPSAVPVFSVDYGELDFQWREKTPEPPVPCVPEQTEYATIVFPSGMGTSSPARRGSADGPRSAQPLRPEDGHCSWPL
The assay is described as follows: Jurkat-PD-1 Cell Binding High-Content Screening Assay (CBA). The class given is cell-based. Particulars: Jurkat cell line over-expressing human PD-1; PE-labeled PD-L1-Ig 20 nM final; read-out: Jurkat hPD1-PDL1 IC50. The method in brief:
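Read-out is high-content imaging of cell-bound phycoerythrin-tagged PD-L1-Ig on fixed, Hoechst-counterstained Jurkat cells that over-express human PD-1. Compound exposure lasts 2 h at 37° C before the labeled ligand (20 nM final) is added for a further hour.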
Turning to `CC(=O)NCCCC[C@@H]1NC(=O)[C@H](C(C)(C)O)NC(=O)[C@H](CC2CCCCC2)NC(=O)[C@H](CCN)NC(=O)[C@@H](CC(C)C)NC(=O)[C@H](CCCN)NC(=O)[C@H](Cc2ccc(OCC(=O)O)cc2)NC(=O)[C@H](Cc2ccc(-c3ccccc3)cc2)NC(=O)[C@H](Cc2ccc(OCC(=O)O)cc2)NC(=O)[C@H](Cc2cccc(C(F)(F)F)c2)NC(=O)[C@H](CC(=O)O)NC(=O)[C@H](Cc2ccc(OCC(=O)O)cc2)NC(=O)[C@H](Cc2ccc(OCC(=O)O)cc2)NC(=O)CSC[C@@H](C(=O)N[C@@H](CCN)C(=O)NCCOCCOCC(=O)NCCCCCCCCCCCCCCC(=O)O)NC1=O` [Compound 3850] ({CH2CO}-Y(Carboxymethyl)Y(Carboxymethyl)D[Phe(3-CF3)]Y(Carboxymethyl)[Bip]Y(Carboxymethyl)[Orn][dL][Dab][Cha][Val(3-OH)]K(Ac)C[Dab][AEEA]-{NH(CH2)14COOH}; thioether N-14), the half-maximal inhibitory concentration (IC50) is 282 nM.
As for `Cc1cccc(C[C@@H]2NC(=O)[C@H](CC(=O)O)NC(=O)[C@H](Cc3ccc(OCC(=O)O)cc3)NC(=O)[C@H](CN)NC(=O)CSC[C@@H](C(=O)N[C@@H](CCN)C(=O)NCCOCCOCC(=O)NCCCCCCCCCCC(=O)O)NC(=O)[C@H](CCCN)NC(=O)[C@H](C(C)C)NC(=O)[C@H](CC3CCCCC3)NC(=O)[C@H](CCN)NC(=O)[C@@H](CC(C)C)NC(=O)[C@H](CCCN)NC(=O)[C@H](Cc3ccccc3)NC(=O)[C@H](Cc3ccc(-c4ccccc4)cc3)NC(=O)[C@H](Cc3ccc(O)cc3)NC2=O)c1` [Compound 2041] ({CH2CO}-[Dap]Y(Carboxymethyl)D[Phe(3-Me)]Y[Bip]F[Orn][dL][Dab][Cha]V[Orn]C[Dab][AEEA][Aun]-OH; thioether N-14), the IC50 was determined as 8.2 nM.
As for `Cc1cccc(C[C@@H]2NC(=O)[C@H](CC(=O)O)NC(=O)[C@H](Cc3ccc(OCC(=O)O)cc3)NC(=O)[C@H](CN)NC(=O)CSC[C@@H](C(=O)NCCOCCOCC(=O)NCCCCCCCCCCC(=O)O)NC(=O)[C@H](CCCN)NC(=O)[C@H](C(C)C)NC(=O)[C@H](CC3CCCCC3)NC(=O)[C@H](CCN)NC(=O)[C@@H](CC(C)C)NC(=O)[C@H](CCCN)NC(=O)[C@H](Cc3ccc(O)cc3)NC(=O)[C@H](Cc3ccc(-c4ccccc4)cc3)NC(=O)[C@H](Cc3ccc(O)cc3)NC2=O)c1` [Compound 2691] ({CH2CO}-[Dap]Y(Carboxymethyl)D[Phe(3-Me)]Y[Bip]Y[Orn][dL][Dab][Cha]V[Orn]C[AEEA][Aun]-OH; thioether N-14), the IC50 was 15 nM.
Then `Cc1cccc(C[C@@H]2NC(=O)[C@H](CC(=O)O)NC(=O)[C@H](Cc3ccc(OCC(=O)O)cc3)NC(=O)[C@H](CN)NC(=O)CSC[C@@H](C(=O)N[C@@H](CCN)C(=O)NCCCCCCCCCCC(=O)O)NC(=O)[C@H]([C@@H](C)O)NC(=O)[C@H](C(C)C)NC(=O)[C@H](CC3CCCCC3)NC(=O)[C@H](Cc3cnc[nH]3)NC(=O)[C@@H](CC(C)C)NC(=O)[C@H](CCCN)NC(=O)[C@H](C(C)C)NC(=O)[C@H](Cc3ccc(-c4ccccc4)cc3)NC(=O)[C@H](C(C)C)NC2=O)c1` [Compound 1101] ({CH2CO}-[Dap]Y(Carboxymethyl)D[Phe(3-Me)]V[Bip]V[Orn][dL]H[Cha]VTC[Dab][Aun]-OH; thioether N-14), with 69.6 nM.
Then `Cc1cccc(C[C@@H]2NC(=O)[C@H](CC(=O)O)NC(=O)[C@H](Cc3ccc(OCC(=O)O)cc3)NC(=O)[C@H](CN)NC(=O)CSC[C@@H](C(=O)N[C@H](C(=O)NCCCCCCCCCCC(=O)O)[C@H](C)N)NC(=O)[C@H](CO)NC(=O)[C@H](C(C)C)NC(=O)[C@H](CC3CCCCC3)NC(=O)[C@H](CCN)NC(=O)[C@@H](CC(C)C)NC(=O)[C@H](CCCN)NC(=O)[C@H](Cc3ccc(OCC(=O)O)cc3)NC(=O)[C@H](Cc3ccc(-c4ccccc4)cc3)NC(=O)[C@H](Cc3ccc(OCC(=O)O)cc3)NC2=O)c1` [Compound 2172] ({CH2CO}-[Dap]Y(Carboxymethyl)D[Phe(3-Me)]Y(Carboxymethyl)[Bip]Y(Carboxymethyl)[Orn][dL][Dab][Cha]VSC[Abu(3S-NH2)][Aun]-OH; thioether N-14), with 30.6 nM; and `CC(C)C[C@H]1NC(=O)[C@H](CCCN)NC(=O)[C@H](Cc2ccc(O)cc2)NC(=O)[C@H](Cc2ccc(-c3ccccc3)cc2)NC(=O)[C@H](C(C)C)NC(=O)[C@H](Cc2c[nH]c3ccccc23)NC(=O)[C@H](CC(=O)O)NC(=O)[C@H](Cc2ccc(OCC(=O)O)cc2)NC(=O)[C@H](CCCNC(=N)N)NC(=O)CSC[C@@H](C(=O)N[C@@H](CCN)C(=O)NCCCCCCCCCCC(=O)O)NC(=O)[C@H](CCO)NC(=O)[C@H](C(C)C)NC(=O)[C@H](CC2CCCCC2)NC(=O)[C@H](CCN)NC1=O` [Compound 3412] ({CH2CO}-RY(Carboxymethyl)DWV[Bip]Y[Orn][dL][Dab][Cha]V[hSer]C[Dab][Aun]-OH; thioether N-14), with 16.4 nM.
As to `Cc1cccc(C[C@@H]2NC(=O)[C@H](CC(=O)O)NC(=O)[C@H](Cc3ccc(OCC(=O)O)cc3)NC(=O)[C@H](CCCNC(=N)N)NC(=O)CSC[C@@H](C(=O)N[C@@H](CCN)C(=O)NCCCCCCCCCCC(=O)O)NC(=O)[C@H](C(C)O)NC(=O)[C@H](C(C)(C)O)NC(=O)[C@H](CC3CCCCC3)NC(=O)[C@H](CCN)NC(=O)[C@@H](CC(C)C)NC(=O)[C@H](CCCN)NC(=O)[C@H](CCCNC(N)=O)NC(=O)[C@H](Cc3ccc(-c4ccccc4)cc3)NC(=O)[C@H](C(C)C)NC2=O)c1` (stereo partly drawn) [Compound 3512] ({CH2CO}-RY(Carboxymethyl)D[Phe(3-Me)]V[Bip][Cit][Orn][dL][Dab][Cha][Val(3-OH)][Thr(3ξ)]C[Dab][Aun]-OH; thioether N-14), the IC50 worked out at 18.2 nM.
Then `COc1cccc(C[C@@H]2NC(=O)[C@H](Cc3cccc(C)c3)NC(=O)[C@H](CC(=O)O)NC(=O)[C@H](Cc3ccc(OCC(=O)O)cc3)NC(=O)[C@H](Cc3ccncc3)NC(=O)CSC[C@@H](C(=O)N[C@@H](CCN)C(=O)NCCCCCCCCCCC(=O)O)NC(=O)[C@H](CO)NC(=O)[C@H](C(C)(C)O)NC(=O)[C@H](CC3CCCCC3)NC(=O)[C@H](CCN)NC(=O)[C@@H](CC(C)C)NC(=O)[C@H](CCCN)NC(=O)[C@H](Cc3ccc(OCC(=O)O)cc3)NC(=O)[C@H](Cc3ccc(-c4ccccc4)cc3)NC2=O)c1` [Compound 2186] ({CH2CO}-[4Pal]Y(Carboxymethyl)D[Phe(3-Me)][Phe(3-OMe)][Bip]Y(Carboxymethyl)[Orn][dL][Dab][Cha][Val(3-OH)]SC[Dab][Aun]-OH; thioether N-14), with 14 nM; and `Cc1cccc(C[C@@H]2NC(=O)[C@H](CC(=O)O)NC(=O)[C@H](Cc3ccc(OCC(=O)O)cc3)NC(=O)[C@H](CN)NC(=O)CSC[C@@H](C(=O)NCCOCCOCC(=O)N[C@@H](CCCCN)C(=O)NCCCCCCCCCCC(=O)O)NC(=O)[C@H](CCCNC(=N)N)NC(=O)[C@H](C(C)C)NC(=O)[C@H](CC3CCCCC3)NC(=O)[C@H](CCN)NC(=O)[C@@H](CC(C)C)NC(=O)[C@H](CCCN)NC(=O)[C@H](C(C)C)NC(=O)[C@H](Cc3ccc(-c4ccccc4)cc3)NC(=O)[C@H](C(C)C)NC2=O)c1` [Compound 2598] ({CH2CO}-[Dap]Y(Carboxymethyl)D[Phe(3-Me)]V[Bip]V[Orn][dL][Dab][Cha]VRC[AEEA]K[Aun]-OH; thioether N-14), with 10.6 nM.
Take `Cc1cccc(C[C@@H]2NC(=O)[C@H](CC(=O)O)NC(=O)[C@H](Cc3ccc(OCC(=O)O)cc3)NC(=O)[C@H](Cc3ccc(OCC(=O)O)cc3)NC(=O)CSC[C@@H](C(=O)N[C@@H](CCN)C(=O)NCCOCCOCC(=O)NCCCCCCCCCCCCC(=O)O)NC(=O)[C@H](CO)NC(=O)[C@H](C(C)(C)O)NC(=O)[C@H](CC3CCCCC3)NC(=O)[C@H](CCN)NC(=O)[C@@H](CC(C)C)NC(=O)[C@H](CCCN)NC(=O)[C@H](Cc3ccc(C(=O)O)cc3)NC(=O)[C@H](Cc3ccc(-c4ccccc4)cc3)NC(=O)[C@H](Cc3ccc(C(=O)O)cc3)NC2=O)c1` [Compound 3842] ({CH2CO}-Y(Carboxymethyl)Y(Carboxymethyl)D[Phe(3-Me)][Phe(4-COOH)][Bip][Phe(4-COOH)][Orn][dL][Dab][Cha][Val(3-OH)]SC[Dab][AEEA]-{NH(CH2)12COOH}; thioether N-14): the IC50 is 16.1 nM.
The same measure for `Cc1cccc(C[C@@H]2NC(=O)[C@H](CC(=O)O)NC(=O)[C@H](Cc3ccc(OCC(=O)O)cc3)NC(=O)[C@H](CCCCNC(=N)N)NC(=O)CSC[C@@H](C(=O)N[C@@H](CCN)C(=O)N[C@@H](CO)C(=O)NCCCCCCCCCCCC(=O)O)NC(=O)[C@H](C(C)O)NC(=O)[C@H](C(C)C)NC(=O)[C@H](CC3CCCCC3)NC(=O)[C@H](CCN)NC(=O)[C@@H](CC(C)C)NC(=O)[C@H](CCCN)NC(=O)[C@H](CCCNC(N)=O)NC(=O)[C@H](Cc3ccc(-c4ccccc4)cc3)NC(=O)[C@H](C(C)C)NC2=O)c1` (stereo partly drawn) [Compound 3570] ({CH2CO}-[hArg]Y(Carboxymethyl)D[Phe(3-Me)]V[Bip][Cit][Orn][dL][Dab][Cha]V[Thr(3ξ)]C[Dab]S[12Ado]-OH; thioether N-14): 16.3 nM.
Then `Cc1cccc(C[C@@H]2NC(=O)[C@H](CC(=O)O)NC(=O)[C@H](Cc3ccc(OCC(=O)O)cc3)NC(=O)[C@H](CN)NC(=O)CSC[C@@H](C(=O)N[C@@H](CCN)C(=O)NCCCCCCCCCCC(=O)O)NC(=O)[C@H](CCC(=O)O)NC(=O)[C@H](C(C)C)NC(=O)[C@H](CC3CCCCC3)NC(=O)[C@H](CCN)NC(=O)[C@@H](CC(C)C)NC(=O)[C@H](CCCN)NC(=O)[C@H](Cc3ccc(OCC(=O)O)cc3)NC(=O)[C@H](Cc3ccc(-c4ccccc4)cc3)NC(=O)[C@H](Cc3ccc(OCC(=O)O)cc3)NC2=O)c1` [Compound 1245] ({CH2CO}-[Dap]Y(Carboxymethyl)D[Phe(3-Me)]Y(Carboxymethyl)[Bip]Y(Carboxymethyl)[Orn][dL][Dab][Cha]VEC[Dab][Aun]-OH; thioether N-14), with 35.1 nM.

Broadly, the IC50 is the concentration needed to halve the response being measured.
